Source: PMC6069808, “Biochemical and structural features of diverse bacterial glucuronoyl esterases facilitating recalcitrant biomass conversion” (Biotechnology for Biofuels, 2018)

Experiments:
Experiment in all cases: uronate dehydrogenase-coupled assay (K-URONIC), NADH formation
OtCE15C = system: T1, OtCE15C; format: biochemical, Opitutus terrae; settings: pH 7.5, 25 °C, 50 mM sodium phosphate, ≤10% DMSO
T1 construct: recombinant in E. coli BL21(DE3), N-terminal His6 tag and TEV site (modified pET-28a)

SuCE15A = system: T2, SuCE15A; format: biochemical, Candidatus Solibacter usitatus; settings: pH 7.5, 25 °C, 50 mM sodium phosphate, ≤10% DMSO
T2 construct: recombinant in E. coli BL21(DE3), N-terminal His6 tag and TEV site (modified pET-28a)

OtCE15D = system: T3, OtCE15D; format: biochemical, Opitutus terrae; settings: pH 7.5, 25 °C, 50 mM sodium phosphate, ≤10% DMSO
T3 construct: recombinant in E. coli Rosetta2(DE3), N-terminal His6 tag and TEV site (modified pET-28a)

SlCE15B = biological target: T4, SlCE15B (Spirosoma linguale, UniProt D2QTM2); format: biochemical; settings: pH 6.5, 25 °C, 50 mM sodium phosphate, ≤10% DMSO; range covers four enzymes
T4 construct: gene Slin_6195; recombinant in E. coli with tig coexpression (pTf16), N-terminal His6 tag and TEV site (modified pET-28a)
T4 sequence (D2QTM2 entry or part of it): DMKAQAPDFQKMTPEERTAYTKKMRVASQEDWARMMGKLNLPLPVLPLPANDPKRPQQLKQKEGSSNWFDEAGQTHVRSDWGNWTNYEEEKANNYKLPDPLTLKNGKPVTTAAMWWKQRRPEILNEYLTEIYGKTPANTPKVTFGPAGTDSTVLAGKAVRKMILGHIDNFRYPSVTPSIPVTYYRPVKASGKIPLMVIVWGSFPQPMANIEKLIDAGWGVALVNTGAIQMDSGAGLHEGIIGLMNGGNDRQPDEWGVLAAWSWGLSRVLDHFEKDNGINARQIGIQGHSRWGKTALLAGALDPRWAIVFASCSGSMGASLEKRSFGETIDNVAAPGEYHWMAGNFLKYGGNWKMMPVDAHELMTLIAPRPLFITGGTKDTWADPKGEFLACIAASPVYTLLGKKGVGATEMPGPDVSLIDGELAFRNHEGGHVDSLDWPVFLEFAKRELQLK

OtCE15B = system: T5, OtCE15B; format: biochemical, Opitutus terrae; settings: pH 7.5, 25 °C, 50 mM sodium phosphate, ≤10% DMSO
T5 construct: recombinant in E. coli BL21(DE3), N-terminal His6 tag and TEV site (modified pET-28a); Tyr in place of the conserved Arg next to catalytic Ser
Text: uronate dehydrogenase-coupled assay (K-URONIC), NADH formation on OtCE15B

Km (OtCE15C) [µM]	Km (SuCE15A) [µM]	Km (OtCE15D) [µM]	Km (SlCE15B) [µM]	Km (OtCE15C; range covers four enzymes) [µM]	Km (SuCE15A; range covers four enzymes) [µM]	Km (OtCE15D; range covers four enzymes) [µM]	Km (OtCE15B) [µM]	Structure (SMILES)
2210 ± 120	1240 ± 170	2080 ± 90						C=CCOC(=O)[C@H]1OC(O)[C@H](O)[C@@H](O)[C@@H]1O (some centres unmarked) [AllylGlcA]
			400 to 600	400 to 600	400 to 600	400 to 600	7940 ± 870	O=C(OCc1ccccc1)[C@H]1OC(O)[C@H](O)[C@@H](O)[C@@H]1O (some centres unmarked) [BnzGlcA]
4010 ± 55	4310 ± 400	12300 ± 710						COC(=O)[C@H]1OC(O)[C@H](O)[C@@H](O)[C@@H]1O (some centres unmarked) [MeGlcA]
